Measurements taken from patent publication US10183947B2, “Pyrazole derivatives useful as 5-lipoxygenase activating protein (FLAP) inhibitors” (ASTRAZENECA AB, priority 2015, dated 2019).
pIC50: −log10 of the molar value. Read-outs that look alike come from different tables or passages of the source.

Key:
[1] = biological target: FLAP (human ALOX5AP expressed in COS-7 cell membranes) (Homo sapiens (Human), UniProt P20292); assay: FLAP Binding Assay (Test A), competition binding with 3H-MK591 as tracer; settings: competition with 3H-MK591 (2 nM), membranes from COS-7 cells expressing human ALOX5AP, 60 min at rt
Protocol: FLAP Binding Assay (Test A) Compounds were tested in a competition binding assay using ^3H-MK591 as tracer. […] Med. Chem. […] A 100,000×g pellet from COS-7 cells stably transfected with a plasmid expressing human ALOX5AP was the source of FLAP. […] Following filtration, filter plates were dried 12 h at RT (or 50° C. for 1 hour). 50 μL scintillant was then added, the filterplates were sealed and radioactivity was measured in a microbeta counter. Specific binding was defined as total binding minus non-specific binding. Total binding was defined as ^3H-MK591 bound to membranes in the absence of competitor, non-specific binding was defined as ^3H-MK591 in the presence of 0.1 mM MK-591. IC50 values were determined by plotting % inhibition versus log compound concentration and using a one site dose response model.

[2] = system: LTB4 production in fresh human whole blood; assay: FLAP Whole Blood Assay (Test B), inhibition of LTB4 production; format: cell-based; settings: then calcium ionophore A23187, LTB4 by EIA
Protocol: FLAP Whole Blood Assay (Test B)
Compounds were tested for the inhibition of LTB4 production in fresh human whole blood obtained by venapuncture using heparin to prevent clotting. 1.5 μL compounds or DMSO carrier were dispensed into the wells of a 96-well deep-well plate in 3-fold dilution series. 500 μL hepamised whole blood was then added followed by incubation at 37° C. for 30 min (method A) or 4 h (method B). 100 μL blood was subsequently transferred in triplicate to pre-dispensed 0.5 μL 2 mM calcium ionophore (calcimycin; A23187) in a second 96-well plate. Following incubation at 37° C. for 20 min, the assays were stopped by adding 10 μL of stop solution (100 mM EGTA, pH 7.4) and the plate was transferred to ice. The plate was centrifuged at 3000 rpm at 4° C. for 10 min and […] was transferred to a fresh 96 well plate containing 90 μL pre-dispensed EIA assay buffer (0.1 M phosphate buffer+0.1% BSA). LTB4 was then measured using reagents from a commercial EIA (Cayman Chemicals). LTB4 production was defined as the LTB4 level in the presence of a given concentration of test compound minus the LTB4 level in the presence of 50 nM 5-[[4-[(2S,4R)-4-hydroxy-2-methyl-tetrahydropyran-4-yl]-2-thienyl]sulfanyl]-1-methyl-indolin-2-one. (Preparation of 5-[[4-[(2S,4R)-4-hydroxy-2-methyl-tetrahydropyran-4-yl]-2-thienyl]sulfanyl]-1-methyl-indolin-2-one was described in Org. Process Res. Dev., 2005, 9, 555-569 or EP623614 B1). Inhibition of LTB4 production was defined as the LTB4 level in the presence of a given concentration of test compound expressed as a % of the LTB4 level in the presence of DMSO. IC50 values were determined by plotting % inhibition versus log compound concentration and using a one site dose response model.

[3] = method B: compound incubated with human whole blood at 37° C. for 4 h, read-out: IC50 nM (method B)
[4] = 0.5 h, method A: compound incubated with human whole blood at 37° C. for 30 min, read-out: IC50 nM (method A)

FLAP (human ALOX5AP expressed in COS-7 cell membranes), sequence (P20292 whole entry): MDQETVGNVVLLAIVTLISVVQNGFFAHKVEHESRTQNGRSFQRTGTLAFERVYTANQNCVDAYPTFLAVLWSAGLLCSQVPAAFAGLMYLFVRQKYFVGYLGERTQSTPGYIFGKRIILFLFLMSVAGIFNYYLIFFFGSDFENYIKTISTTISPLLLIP

pIC50 [1]	IC50 [2, 3] [nM]	IC50 [2, 4] [nM]	Compound
7.70	69	–	Cc1cc(-c2ccc(C(=O)C3CCCCC3C(=O)Nc3cn[nH]c3C(N)=O)c(F)c2)[nH]n1 (single isomer, unassigned) [Example 38, 4-[({(1R,2R or 1S,2S)-2-[2-Fluoro-4-(3-methyl-1H-pyrazol-5-yl)benzoyl]cyclohexyl}carbonyl)amino]-1H-pyrazole-5-carboxamide]
7.47	60	–	Cn1ncc(NC(=O)[C@@H]2CCCC[C@H]2C(=O)c2ccc(-c3cc[nH]n3)cc2)c1C(N)=O [Example 2, 1-Methyl-4-[({(1R,2R)-2-[4-(1H-pyrazol-3-yl)benzoyl]cyclohexyl}-carbonyl)amino]-1H-pyrazole-5-carboxamide]
–	290	–	Cc1cc(-c2ccc(C(=O)[C@@H]3CCCC[C@H]3C(=O)Nc3cn(C)nc3C(N)=O)cc2)n[nH]1 [Example 4, 1-Methyl-4-[({(1R,2R)-2-[4-(3-methyl-1H-pyrazol-5-yl)benzoyl]-cyclohexyl}carbonyl)amino]-1H-pyrazole-3-carboxamide]
7.36	–	640	Cc1nsc(NC(=O)C2CCCCC2C(=O)c2ccc(-c3ccn[nH]3)cc2)c1C#N (racemic) [Example 49, (1R,2R and 1S,1S)—N-(4-Cyano-3-methyl-1,2-thiazol-5-yl)-2-[4-(1H-pyrazol-5-yl)benzoyl]cyclohexanecarboxamide]
–	117	–	Cn1nnc(NC(=O)C2CCCCC2C(=O)c2ccc(-c3ccn[nH]3)cc2)c1C1CC1 [Example 33, (1R,2R and 1S,2S)—N-(5-Cyclopropyl-1-methyl-1H-1,2,3-triazol-4-yl)-2-[4-(1H-pyrazol-5-yl)benzoyl]cyclohexanecarboxamide]
7.28	–	260	O=C(Nc1nc(C2CC2)ns1)C1CCCCC1C(=O)c1ccc(-c2ccn[nH]2)cc1 (racemic) [Example 47, (1R,2R and 1S,2S)—N-(3-Cyclopropyl-1,2,4-thiadiazol-5-yl)-2-[4-(1H-pyrazol-5-yl)benzoyl]cyclohexanecarboxamide]
8.20	40	–	Cc1cc(-c2ccc(C(=O)[C@@H]3CCCC[C@H]3C(=O)Nc3cnn4c3C(=O)NCC4)cc2)[nH]n1 [Example 7, (1R,2R)-2-[4-(3-Methyl-1H-pyrazol-5-yl)benzoyl]-N-(4-oxo-4,5,6,7-tetrahydropyrazolo[1,5-a]pyrazin-3-yl)cyclohexanecarboxamide]
7.19	55	–	CN(C)S(=O)(=O)c1c(NC(=O)[C@@H]2CCCC[C@H]2C(=O)c2ccc(-c3ccn[nH]3)cc2)cnn1C [Example 27, (1R,2R)—N-[5-(Dimethylsulfamoyl)-1-methyl-1H-pyrazol-4-yl]-2-[4-(1H-pyrazol-5-yl)benzoyl]cyclohexanecarboxamide]
7.35	35	–	Cn1ncc(NC(=O)[C@@H]2CCCC[C@H]2C(=O)c2ccc(-c3ccn[nH]3)cc2)c1S(C)(=O)=O [Example 8, (1R,2R)—N-[1-Methyl-5-(methylsulfonyl)-1H-pyrazol-4-yl]-2-[4-(1H-pyrazol-5-yl)benzoyl]cyclohexanecarboxamide]
7.66	41	–	Cc1cc(-c2ccc(C(=O)[C@@H]3CCCC[C@H]3C(=O)Nc3cnn4c3C(=O)N(C)CC4)cc2)n[nH]1 [Example 16, (1R,2R)—N-(5-Methyl-4-oxo-4,5,6,7-tetrahydropyrazolo[1,5-a]pyrazin-3-yl)-2-[4-(5-methyl-1H-pyrazol-3-yl)benzoyl]cyclohexanecarboxamide]
7.15	–	208	Cc1cc(-c2ccc(C(=O)C3CCCCC3C(=O)Nc3nonc3C(N)=O)c(F)c2)[nH]n1 (single isomer, unassigned) [Example 40, 4-[({(1R,2R or 1S,2S)-2-[2-Fluoro-4-(3-methyl-1H-pyrazol-5-yl)benzoyl]cyclohexyl}carbonyl)amino]-1,2,5-oxadiazole-3-carboxamide]
6.57	340	–	Cc1cc(-c2ccc(C(=O)[C@@H]3CCCC[C@H]3C(=O)Nc3cn(C)nc3S(N)(=O)=O)cc2)[nH]n1 [Example 10, (1R,2R)-2-[4-(3-Methyl-1H-pyrazol-5-yl)benzoyl]-N-(1-methyl-3-sulfamoyl-1H-pyrazol-4-yl)cyclohexanecarboxamide]
5.43	–	–	Cn1ncc(NC(=O)C2CCCCC2C(=O)c2ccc(-c3cc[nH]n3)cc2)c1C#N (single isomer, unassigned) [Example 18a, (1R,2R or 1S,2S)—N-(5-Cyano-1-methyl-1H-pyrazol-4-yl)-2-[4-(1H-pyrazol-3-yl)benzoyl]cyclohexanecarboxamide]
7.70	18	–	CN1CCn2ncc(NC(=O)[C@@H]3CCCC[C@H]3C(=O)c3ccc(-c4cc[nH]n4)cc3)c2C1=O [Example 17, (1R,2R)—N-(5-Methyl-4-oxo-4,5,6,7-tetrahydropyrazolo[1,5-a]pyrazin-3-yl)-2-[4-(1H-pyrazol-3-yl)benzoyl]cyclohexanecarboxamide]
–	110	–	Cn1cc(NC(=O)[C@@H]2CCCC[C@H]2C(=O)c2ccc(-c3ccn[nH]3)cc2)c(OC(F)F)n1 [Example 9, (1R,2R)—N-[3-(Difluoromethoxy)-1-methyl-1H-pyrazol-4-yl]-2-[4-(1H-pyrazol-5-yl)benzoyl]cyclohexanecarboxamide]
7.62	740	–	Cc1cc(-c2ccc(C(=O)[C@@H]3CCCC[C@H]3C(=O)Nc3c(C(N)=O)n[nH]c3C)cc2)[nH]n1 [Example 22, 5-Methyl-4-[({(1R,2R)-2-[4-(3-methyl-1H-pyrazol-5-yl)benzoyl]-cyclohexyl}carbonyl)amino]-1H-pyrazole-3-carboxamide]
–	260	–	Cc1cc(-c2ccc(C(=O)[C@@H]3CCCC[C@H]3C(=O)Nc3cnn(C)c3S(N)(=O)=O)cc2)[nH]n1 [Example 13, (1R,2R)-2-[4-(3-Methyl-1H-pyrazol-5-yl)benzoyl]-N-(1-methyl-5-sulfamoyl-1H-pyrazol-4-yl)cyclohexanecarboxamide]
7.54	80	–	CCn1ncc(NC(=O)[C@@H]2CCCC[C@H]2C(=O)c2ccc(-c3cc(C)n[nH]3)cc2)c1C(N)=O [Example 19, 1-Ethyl-4-[({(1R,2R)-2-[4-(3-methyl-1H-pyrazol-5-yl)benzoyl]-cyclohexyl}carbonyl)amino]-1H-pyrazole-5-carboxamide]
–	–	281	CNC(=O)c1nn(C)cc1NC(=O)C1CCCCC1C(=O)c1ccc(-c2cc[nH]n2)cc1 [Example 20, N,1-Dimethyl-4-[({(1R,2R and 1S,2S)-2-[4-(1H-pyrazol-3-yl)benzoyl]-cyclohexyl}carbonyl)amino]-1H-pyrazole-3-carboxamide]
–	148	–	Cc1cc(-c2ccc(C(=O)C3CCCCC3C(=O)Nc3cn(C)nc3C(N)=O)c(F)c2)[nH]n1 (single isomer, unassigned) [Example 36, 4-[({(1R,2R or 1S,2S)-2-[2-Fluoro-4-(3-methyl-1H-pyrazol-5-yl)benzoyl]-cyclohexyl}carbonyl)amino]-1-methyl-1H-pyrazole-3-carboxamide]
6.68	–	–	Cc1coc(NC(=O)C2CCCCC2C(=O)c2ccc(-c3ccn[nH]3)cc2)n1 (racemic) [Example 45, (1R,2R and 1S,2S)—N-(4-Methyl-1,3-oxazol-2-yl)-2-[4-(1H-pyrazol-5-yl)benzoyl]cyclohexanecarboxamide]
–	95	–	Cc1cc(-c2ccc(C(=O)C3CCCCC3C(=O)Nc3cn(C)nc3C#N)cc2)[nH]n1 (single isomer, unassigned) [Example 5b, (1R,2R or 1S,2S)—N-(3-Cyano-1-methyl-1H-pyrazol-4-yl)-2-[4-(3-methyl-1H-pyrazol-5-yl)benzoyl]cyclohexanecarboxamide]
–	70	–	Cc1cc(-c2ccc(C(=O)[C@@H]3CCCC[C@H]3C(=O)Nc3cnn(C)c3C(N)=O)cc2)[nH]n1 [Example 3, 1-Methyl-4-[({(1R,2R)-2-[4-(3-methyl-1H-pyrazol-5-yl)benzoyl]cyclohexyl}-carbonyl)amino]-1H-pyrazole-5-carboxamide]
